From publication PMC11850817 (Scientific Reports, 2025)

Tests used:
AKT2 = AKT2 (Homo sapiens, UniProt P31751); assay: Radiometric kinase assay; type: biochemical; details: read-out: Kinase inhibition (%) AKT2
CHEK1 = CHEK1 (Homo sapiens, UniProt O14757); assay: Radiometric kinase assay; type: biochemical; details: read-out: Kinase inhibition (%) CHEK1
PIK3CA = PIK3CA (Homo sapiens, UniProt P42336); assay: Radiometric kinase assay; type: biochemical; details: read-out: Kinase inhibition (%) PIK3CA
ABL1 = ABL1 (Homo sapiens, UniProt P00519); assay: Radiometric kinase assay; type: biochemical; details: read-out: Kinase inhibition (%) ABL1
FLT4 (VEGFR3) = FLT4 (VEGFR3) (Homo sapiens, UniProt P35916); assay: Radiometric kinase assay; type: biochemical
AURKA = AURKA (Homo sapiens, UniProt O14965); assay: Radiometric kinase assay; type: biochemical; details: read-out: Kinase inhibition (%) AURKA
ROS1 = ROS1 (Homo sapiens, UniProt P08922); assay: Radiometric kinase assay; type: biochemical; details: read-out: Kinase inhibition (%) ROS1
NTRK3 (TrkC) = NTRK3 (TrkC) (Homo sapiens, UniProt Q16288); assay: Radiometric kinase assay; type: biochemical; details: read-out: Kinase inhibition (%) NTRK3 (TrkC)
NIH3T3 = assay: MTT assay, NIH3T3 non-cancer cell line; type: cell-based; details: Mus musculus, NIH3T3, 72 h, read-out: IC50 NIH3T3
MCF-7 = assay: MTT antiproliferative assay, MCF-7; type: cell-based, human; details: Homo sapiens, MCF7, 72 h, read-out: IC50 MCF-7
AsPC-1 cells [1] = assay: Cell cycle test, RNase/PI flow cytometry; type: cell-based, human; details: AsPC-1, 3, 10, 30, 50 µM, 48 h
EGFR = EGFR (Homo sapiens, UniProt P00533); assay: Radiometric kinase assay; type: biochemical; details: read-out: Kinase inhibition (%) EGFR
Chain of EGFR (P00533 25-1210): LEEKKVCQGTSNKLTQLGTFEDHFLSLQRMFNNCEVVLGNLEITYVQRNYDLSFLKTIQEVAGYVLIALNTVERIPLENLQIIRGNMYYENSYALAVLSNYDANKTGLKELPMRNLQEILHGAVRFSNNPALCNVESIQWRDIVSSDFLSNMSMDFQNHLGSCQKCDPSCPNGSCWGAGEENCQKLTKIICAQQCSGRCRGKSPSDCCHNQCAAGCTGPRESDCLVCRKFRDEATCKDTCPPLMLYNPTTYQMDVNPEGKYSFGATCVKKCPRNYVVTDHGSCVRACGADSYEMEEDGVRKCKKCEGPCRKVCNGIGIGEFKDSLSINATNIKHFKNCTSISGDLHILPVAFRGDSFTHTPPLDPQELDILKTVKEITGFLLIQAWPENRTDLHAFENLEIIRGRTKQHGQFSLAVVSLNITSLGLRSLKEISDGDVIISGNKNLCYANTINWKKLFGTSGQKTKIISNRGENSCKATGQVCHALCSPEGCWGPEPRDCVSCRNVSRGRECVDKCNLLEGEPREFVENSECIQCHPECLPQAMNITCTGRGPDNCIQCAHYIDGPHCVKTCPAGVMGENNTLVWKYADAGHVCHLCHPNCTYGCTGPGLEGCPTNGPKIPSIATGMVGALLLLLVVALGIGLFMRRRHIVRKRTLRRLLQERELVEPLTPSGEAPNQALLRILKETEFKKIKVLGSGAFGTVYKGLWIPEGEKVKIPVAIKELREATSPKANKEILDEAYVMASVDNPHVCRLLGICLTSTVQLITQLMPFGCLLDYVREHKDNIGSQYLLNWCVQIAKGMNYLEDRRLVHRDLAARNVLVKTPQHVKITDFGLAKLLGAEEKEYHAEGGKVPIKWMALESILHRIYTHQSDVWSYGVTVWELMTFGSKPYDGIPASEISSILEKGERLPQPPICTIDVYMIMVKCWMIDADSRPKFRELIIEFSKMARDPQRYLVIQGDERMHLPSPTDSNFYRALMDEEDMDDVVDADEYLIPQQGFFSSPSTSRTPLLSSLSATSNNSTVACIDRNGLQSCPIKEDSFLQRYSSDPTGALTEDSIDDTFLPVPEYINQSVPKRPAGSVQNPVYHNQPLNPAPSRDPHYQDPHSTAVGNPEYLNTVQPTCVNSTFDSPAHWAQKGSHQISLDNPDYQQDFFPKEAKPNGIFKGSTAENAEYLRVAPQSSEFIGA

KIT (c-Kit) = KIT (c-Kit) (Homo sapiens, UniProt P10721); assay: Radiometric kinase assay; type: biochemical; details: read-out: Kinase inhibition (%) KIT (c-Kit)
Chain of KIT (c-Kit) (P10721 26-976): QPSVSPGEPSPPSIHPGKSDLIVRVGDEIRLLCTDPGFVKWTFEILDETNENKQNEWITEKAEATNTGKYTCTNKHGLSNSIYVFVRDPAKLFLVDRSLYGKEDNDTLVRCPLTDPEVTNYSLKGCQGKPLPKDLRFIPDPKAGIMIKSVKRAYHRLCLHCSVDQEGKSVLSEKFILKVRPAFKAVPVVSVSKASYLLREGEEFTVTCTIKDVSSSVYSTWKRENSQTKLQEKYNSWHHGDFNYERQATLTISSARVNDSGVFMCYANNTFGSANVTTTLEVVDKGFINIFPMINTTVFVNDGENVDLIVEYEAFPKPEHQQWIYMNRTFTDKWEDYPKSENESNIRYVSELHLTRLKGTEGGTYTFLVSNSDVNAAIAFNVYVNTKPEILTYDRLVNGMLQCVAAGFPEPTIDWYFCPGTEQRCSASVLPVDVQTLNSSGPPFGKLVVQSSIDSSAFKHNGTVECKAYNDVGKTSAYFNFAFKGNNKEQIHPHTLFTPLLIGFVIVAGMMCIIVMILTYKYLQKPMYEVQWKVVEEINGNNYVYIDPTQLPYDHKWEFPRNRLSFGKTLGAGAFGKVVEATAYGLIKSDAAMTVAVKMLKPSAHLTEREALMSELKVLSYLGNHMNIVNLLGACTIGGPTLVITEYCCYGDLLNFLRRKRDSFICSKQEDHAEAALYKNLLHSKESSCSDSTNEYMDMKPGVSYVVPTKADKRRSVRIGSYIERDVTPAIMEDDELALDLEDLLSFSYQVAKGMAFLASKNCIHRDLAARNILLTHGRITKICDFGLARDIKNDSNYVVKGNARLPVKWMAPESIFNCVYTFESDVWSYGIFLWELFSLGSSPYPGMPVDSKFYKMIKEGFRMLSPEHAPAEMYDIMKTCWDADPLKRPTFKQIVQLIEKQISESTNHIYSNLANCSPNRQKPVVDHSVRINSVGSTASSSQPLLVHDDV

HT-29 = assay: MTT antiproliferative assay, HT-29; type: cell-based, human; details: Homo sapiens, HT-29, 72 h, read-out: IC50 HT-29
WEE1 = WEE1 (Homo sapiens, UniProt P30291); assay: Radiometric kinase assay; type: biochemical; details: read-out: Kinase inhibition (%) WEE1
FGFR1 = FGFR1 (Homo sapiens, UniProt P11362); assay: Radiometric kinase assay; type: biochemical; details: read-out: Kinase inhibition (%) FGFR1
CDK6/cyclinD3 = CDK6/cyclinD3 (Homo sapiens, UniProt Q00534); assay: Radiometric kinase assay; type: biochemical; details: read-out: Kinase inhibition (%) CDK6/cyclinD3
AsPC-1 = assay: MTT antiproliferative assay, AsPC-1; type: cell-based, human; details: Homo sapiens, ASPC1, 72 h, read-out: IC50 AsPC-1
PDGFRB (PDGFRβ) = PDGFRB (PDGFRβ) (Homo sapiens, UniProt P09619); assay: Radiometric kinase assay; type: biochemical; details: read-out: Kinase inhibition (%) PDGFRB (PDGFRβ)
Chain of PDGFRB (PDGFRβ) (P09619 33-1106): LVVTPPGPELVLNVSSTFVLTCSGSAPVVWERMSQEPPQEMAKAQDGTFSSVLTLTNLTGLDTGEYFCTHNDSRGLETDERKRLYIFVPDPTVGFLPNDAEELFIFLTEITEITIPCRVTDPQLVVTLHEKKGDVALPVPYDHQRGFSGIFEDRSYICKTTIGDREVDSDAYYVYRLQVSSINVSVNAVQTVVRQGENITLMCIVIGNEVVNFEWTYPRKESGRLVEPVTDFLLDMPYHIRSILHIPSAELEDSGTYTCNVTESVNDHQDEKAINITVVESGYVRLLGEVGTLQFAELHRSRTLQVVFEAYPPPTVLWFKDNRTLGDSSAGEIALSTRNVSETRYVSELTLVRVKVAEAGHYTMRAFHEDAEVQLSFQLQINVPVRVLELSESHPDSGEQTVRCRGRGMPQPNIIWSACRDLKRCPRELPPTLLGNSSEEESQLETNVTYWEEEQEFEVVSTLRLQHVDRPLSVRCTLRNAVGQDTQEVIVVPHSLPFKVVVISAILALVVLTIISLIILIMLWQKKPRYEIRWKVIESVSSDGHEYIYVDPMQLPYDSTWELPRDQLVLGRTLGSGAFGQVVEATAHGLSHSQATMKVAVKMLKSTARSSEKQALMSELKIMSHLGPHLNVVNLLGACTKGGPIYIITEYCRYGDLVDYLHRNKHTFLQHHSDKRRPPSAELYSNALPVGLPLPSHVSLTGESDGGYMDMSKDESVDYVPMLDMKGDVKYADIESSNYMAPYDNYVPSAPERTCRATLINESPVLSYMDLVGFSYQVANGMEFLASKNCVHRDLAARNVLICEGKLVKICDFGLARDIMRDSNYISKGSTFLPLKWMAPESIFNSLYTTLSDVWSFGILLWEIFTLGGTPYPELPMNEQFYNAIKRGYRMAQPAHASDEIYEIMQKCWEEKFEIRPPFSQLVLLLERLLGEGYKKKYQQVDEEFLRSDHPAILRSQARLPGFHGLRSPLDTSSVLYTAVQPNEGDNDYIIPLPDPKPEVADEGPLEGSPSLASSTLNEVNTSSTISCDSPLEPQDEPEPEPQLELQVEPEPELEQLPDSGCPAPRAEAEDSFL

AsPC-1 cells [2] = assay: Apoptosis by Hoechst 33,258 staining; type: cell-based, human; details: AsPC-1, 10 and 30 µM, 48 h
PDGFRA (PDGFRα) = PDGFRA (PDGFRα) (Homo sapiens, UniProt P16234); assay: Radiometric kinase assay; type: biochemical; details: for inhibition at 10 µM: read-out: Kinase inhibition (%) PDGFRA (PDGFRα)
Chain of PDGFRA (PDGFRα) (P16234 24-1089): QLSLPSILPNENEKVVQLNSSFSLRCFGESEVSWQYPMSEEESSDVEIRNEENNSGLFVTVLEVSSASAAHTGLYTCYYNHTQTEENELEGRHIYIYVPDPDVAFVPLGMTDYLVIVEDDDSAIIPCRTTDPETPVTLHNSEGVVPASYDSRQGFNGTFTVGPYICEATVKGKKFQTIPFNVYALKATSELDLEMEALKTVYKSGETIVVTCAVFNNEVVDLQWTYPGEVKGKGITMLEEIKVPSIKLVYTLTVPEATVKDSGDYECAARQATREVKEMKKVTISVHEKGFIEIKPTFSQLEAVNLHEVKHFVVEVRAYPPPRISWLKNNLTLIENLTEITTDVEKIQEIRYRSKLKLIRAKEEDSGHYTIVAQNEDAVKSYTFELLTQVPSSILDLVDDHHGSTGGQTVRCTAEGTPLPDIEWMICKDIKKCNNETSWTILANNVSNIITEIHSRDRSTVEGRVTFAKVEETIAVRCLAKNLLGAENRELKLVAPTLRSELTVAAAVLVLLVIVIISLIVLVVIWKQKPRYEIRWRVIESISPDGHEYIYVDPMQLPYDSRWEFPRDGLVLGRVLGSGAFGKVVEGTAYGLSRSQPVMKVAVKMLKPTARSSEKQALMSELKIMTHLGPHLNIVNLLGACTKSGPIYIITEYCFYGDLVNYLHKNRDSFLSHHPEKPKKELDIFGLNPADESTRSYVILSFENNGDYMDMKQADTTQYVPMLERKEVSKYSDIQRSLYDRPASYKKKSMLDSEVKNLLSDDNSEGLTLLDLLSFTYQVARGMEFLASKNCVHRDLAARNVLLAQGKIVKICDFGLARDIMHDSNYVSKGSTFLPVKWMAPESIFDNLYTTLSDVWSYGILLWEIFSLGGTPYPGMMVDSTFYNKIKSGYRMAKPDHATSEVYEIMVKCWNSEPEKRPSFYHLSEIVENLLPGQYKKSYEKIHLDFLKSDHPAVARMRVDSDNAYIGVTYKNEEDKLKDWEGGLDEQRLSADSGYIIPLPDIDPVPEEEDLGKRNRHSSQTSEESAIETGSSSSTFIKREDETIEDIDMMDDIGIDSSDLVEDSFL

AKT1 = AKT1 (Homo sapiens, UniProt P31749); assay: Radiometric kinase assay; type: biochemical; details: read-out: Kinase inhibition (%) AKT1
KDR (VEGFR2) = KDR (VEGFR2) (Homo sapiens, UniProt P35968); assay: Radiometric kinase assay; type: biochemical; details: read-out: Kinase inhibition (%) KDR (VEGFR2)
ERBB2 (Her-2) = ERBB2 (Her-2) (Homo sapiens, UniProt P04626); assay: Radiometric kinase assay; type: biochemical; details: read-out: Kinase inhibition (%) ERBB2 (Her-2)
BRAF = BRAF (Homo sapiens, UniProt P15056); assay: Radiometric kinase assay; type: biochemical; details: read-out: Kinase inhibition (%) BRAF
FLT1 (VEGFR1) = FLT1 (VEGFR1) (Homo sapiens, UniProt P17948); assay: Radiometric kinase assay; type: biochemical; details: read-out: Kinase inhibition (%) FLT1 (VEGFR1)
AXL = target: T1, AXL (Homo sapiens, UniProt P30530); assay: Radiometric kinase assay; type: biochemical; details: read-out: Kinase inhibition (%) AXL
T1 sequence (P30530 26-894): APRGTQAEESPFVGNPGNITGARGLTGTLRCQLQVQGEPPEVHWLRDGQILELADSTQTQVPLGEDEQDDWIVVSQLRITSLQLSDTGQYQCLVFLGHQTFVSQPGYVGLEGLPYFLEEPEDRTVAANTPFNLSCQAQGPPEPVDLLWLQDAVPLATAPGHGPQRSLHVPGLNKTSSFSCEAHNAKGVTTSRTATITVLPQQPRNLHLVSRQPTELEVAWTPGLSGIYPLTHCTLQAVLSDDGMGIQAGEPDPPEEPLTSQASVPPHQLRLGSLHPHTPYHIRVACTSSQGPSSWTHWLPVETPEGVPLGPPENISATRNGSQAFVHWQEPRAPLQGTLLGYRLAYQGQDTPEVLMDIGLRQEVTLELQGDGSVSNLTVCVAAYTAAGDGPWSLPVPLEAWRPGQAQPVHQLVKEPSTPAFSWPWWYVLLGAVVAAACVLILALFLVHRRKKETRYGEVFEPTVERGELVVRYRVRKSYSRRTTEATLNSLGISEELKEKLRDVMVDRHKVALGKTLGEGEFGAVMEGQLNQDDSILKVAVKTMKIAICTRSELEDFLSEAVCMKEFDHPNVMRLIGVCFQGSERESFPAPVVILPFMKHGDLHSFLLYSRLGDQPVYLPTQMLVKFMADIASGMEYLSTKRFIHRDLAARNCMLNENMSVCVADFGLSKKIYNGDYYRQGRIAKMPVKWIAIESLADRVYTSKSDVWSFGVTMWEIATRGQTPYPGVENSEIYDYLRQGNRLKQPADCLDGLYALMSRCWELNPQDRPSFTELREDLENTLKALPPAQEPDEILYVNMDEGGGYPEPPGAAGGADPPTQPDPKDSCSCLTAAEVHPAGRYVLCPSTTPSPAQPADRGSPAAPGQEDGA

IGF1R = IGF1R (Homo sapiens, UniProt P08069); assay: Radiometric kinase assay; type: biochemical; details: read-out: Kinase inhibition (%) IGF1R
CDK2/cyclin A = CDK2/cyclin A (Homo sapiens, UniProt P24941); assay: Radiometric kinase assay; type: biochemical; details: for inhibition at 10 µM: read-out: Kinase inhibition (%) CDK2/cyclin A
NTRK1 (TrkA) = NTRK1 (TrkA) (Homo sapiens, UniProt P04629); assay: Radiometric kinase assay; type: biochemical; details: read-out: Kinase inhibition (%) NTRK1 (TrkA)
Chain of NTRK1 (TrkA) (P04629 33-796): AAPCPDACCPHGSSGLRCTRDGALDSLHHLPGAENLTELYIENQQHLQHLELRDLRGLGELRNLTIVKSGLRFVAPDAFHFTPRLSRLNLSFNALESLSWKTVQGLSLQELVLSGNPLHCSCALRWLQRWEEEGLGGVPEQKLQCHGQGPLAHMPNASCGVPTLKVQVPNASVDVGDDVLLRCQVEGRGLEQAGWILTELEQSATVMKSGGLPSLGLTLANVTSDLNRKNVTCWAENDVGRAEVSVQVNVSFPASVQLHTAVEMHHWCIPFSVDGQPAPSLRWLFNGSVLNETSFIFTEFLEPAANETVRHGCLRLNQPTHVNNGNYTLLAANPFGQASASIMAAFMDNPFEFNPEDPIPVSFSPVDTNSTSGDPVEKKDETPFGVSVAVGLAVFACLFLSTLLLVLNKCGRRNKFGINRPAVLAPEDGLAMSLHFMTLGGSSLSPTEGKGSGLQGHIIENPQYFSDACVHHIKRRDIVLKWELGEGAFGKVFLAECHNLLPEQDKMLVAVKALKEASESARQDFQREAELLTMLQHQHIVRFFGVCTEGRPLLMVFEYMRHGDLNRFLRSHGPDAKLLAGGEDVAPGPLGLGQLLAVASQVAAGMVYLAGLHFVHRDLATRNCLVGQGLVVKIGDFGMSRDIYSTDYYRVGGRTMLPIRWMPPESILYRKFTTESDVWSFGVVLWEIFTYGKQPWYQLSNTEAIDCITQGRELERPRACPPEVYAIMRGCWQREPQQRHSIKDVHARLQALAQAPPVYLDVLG

EBC-1 = assay: MTT antiproliferative assay, EBC-1; type: cell-based, human; details: Homo sapiens, EBC-1, 72 h, read-out: IC50 EBC-1
MAP2K1 = MAP2K1 (Homo sapiens, UniProt Q02750); assay: Radiometric kinase assay; type: biochemical; details: read-out: Kinase inhibition (%) MAP2K1
ALK = ALK (Homo sapiens, UniProt Q9UM73); assay: Radiometric kinase assay; type: biochemical; details: read-out: Kinase inhibition (%) ALK
Mia-Paca-2 = assay: MTT antiproliferative assay, Mia-Paca-2; type: cell-based, human; details: Homo sapiens, MIA PaCa-2, 72 h, read-out: IC50 Mia-Paca-2
NTRK2 (TrkB) = NTRK2 (TrkB) (Homo sapiens, UniProt Q16620); assay: Radiometric kinase assay; type: biochemical; details: read-out: Kinase inhibition (%) NTRK2 (TrkB)
MET = MET (Homo sapiens, UniProt P08581); assay: Radiometric kinase assay; type: biochemical; details: read-out: Kinase inhibition (%) MET
FLT3 = FLT3 (Homo sapiens, UniProt P36888); assay: Radiometric kinase assay; type: biochemical; details: read-out: Kinase inhibition (%) FLT3

| inhibition at 10 µM (AKT2) | inhibition at 10 µM (ABL1) | IC50 (MCF-7) | inhibition at 10 µM (EGFR) | inhibition at 10 µM (KIT (c-Kit)) | IC50 (HT-29) | inhibition at 10 µM (FGFR1) | IC50 (AsPC-1) | inhibition at 10 µM (PDGFRB (PDGFRβ)) | inhibition at 10 µM (PDGFRA (PDGFRα)) | inhibition at 10 µM (AKT1) | inhibition at 10 µM (KDR (VEGFR2)) | inhibition at 10 µM (FLT1 (VEGFR1)) | inhibition at 10 µM (AXL) | inhibition at 10 µM (CDK2/cyclin A) | inhibition at 10 µM (NTRK1 (TrkA)) | inhibition at 10 µM (ALK) | IC50 (Mia-Paca-2) | SMILES | IC50 (NIH3T3) | IC50 (EBC-1) | further results |
| --- | --- | --- | --- | --- | --- | --- | --- | --- | --- | --- | --- | --- | --- | --- | --- | --- | --- | --- | --- | --- | --- |
| 25% | 7% | > 100 µM | -5% | 1% | 21.9 ± 3.9 µM | 14% | 23.5 ± 5.8 µM | 16% | 71% | 19% | 20% | -16% | 14% | 73% | 43% | 16% | > 100 µM | O=C1C=C(Nc2ccc(OCc3cn(Cc4ccccc4)nn3)cc2)C(=O)c2ccccc21 [Compound 4a, 2-((4-((1-Benzyl-1H-1,2,3-triazol-4-yl)methoxy)phenyl)amino)naphthalene-1,4-dione] | 85.5 ± 19.6 µM | 5.1 ± 1.2 µM | inhibition at 10 µM (CHEK1): -20%; inhibition at 10 µM (PIK3CA): 14%; IC50 (FLT4 (VEGFR3)): 0.554 ± 0.002 µM; inhibition at 10 µM (FLT4 (VEGFR3); read-out: Kinase inhibition (%) FLT4 (VEGFR3)): 87%; inhibition at 10 µM (AURKA): -3%; inhibition at 10 µM (ROS1): -6%; inhibition at 10 µM (NTRK3 (TrkC)): 40%; Effect on cell cycle distribution (S and G2/M phases) (AsPC-1 cells [1]): dose-dependently increased the number of cells in the S phase and simultaneously reduced the cells in G2/M phase; inhibition at 10 µM (WEE1): 6%; inhibition at 10 µM (CDK6/cyclinD3): 9%; Apoptosis induction (nuclear morphology) (AsPC-1 cells [2]): characteristic features of apoptosis including densely packed chromatin within the nucleus as well as nuclear fragmentation; IC50 (PDGFRA (PDGFRα)): 0.629 ± 0.087 µM; inhibition at 10 µM (ERBB2 (Her-2)): 3%; inhibition at 10 µM (BRAF): 3%; inhibition at 10 µM (IGF1R): -3%; IC50 (CDK2/cyclin A): 1.67 ± 0.115 µM; inhibition at 10 µM (MAP2K1): 9% |
| -10% | 2% | > 100 µM | -9% | -9% | 56.9 ± 4.3 µM | 1% | 30.7 ± 2.2 µM | 17% | 37% | 9% | -19% | -17% | 5% | 32% | 4% | 2% | 1.3 ± 0.4 µM | O=C1C=C(Nc2ccc(OCc3cn(Cc4ccc(Br)cc4)nn3)cc2)C(=O)c2ccccc21 [Compound 4b, 2-((4-((1-(4-Bromobenzyl)−1H-1,2,3-triazol-4 yl)methoxy)phenyl)amino) naphthalene-1,4-dione] | 50.9 ± 8.8 µM | 2 ± 1.2 µM | inhibition at 10 µM (NTRK2 (TrkB)): 13%; inhibition at 10 µM (MET): -8%; inhibition at 10 µM (FLT3): -3% |
